A short description of series [1]: Lactone hydrolysis to the dihydroxy acid. Conditions: for half-life at 200 mM: HEPES/EDTA buffer, pH 7.8.
Procedure: (§1) The half-lives (ti1/2) for hydrolysis of β-lactone analogs to the corresponding dihydroxy acids were measured at 37° C. at a concentration of 200 mM in 20 mM HEPES, 0.5 mM EDTA, pH 7.8. Absorbance was measured for at least five half-lives (approximately 1 hour) at 230 nm, the wavelength at which there is the greatest difference in extinction coefficients for the lactone and dihydroxy.
Series [2] concerns the target T1, PA28-activated 20S proteasome (Homo sapiens, UniProt P28074).
T1 construct: from tissue
As to the kind of experiment: Inactivation of the chymotrypsin-like activity of PA28-activated 20S proteasome (Suc-Leu-Leu-Val-Tyr-AMC). The series is classed as biochemical. Conditions: for kinact/KI: rate of enzyme inactivation, chymotrypsin-like activity of PA28-activated 20S proteasome, 37° C., pH 8.0, read-out: Kobs/[I]. As to the method:
Purification of 20S proteasome and proteasome activator PA28 was performed as previously described (Dick et al., J. Biol. Chem. 271:7273 (1996)).
2 mL of assay buffer (20 mM HEPES, 0.5 mM EDTA, pH 8.0) and Suc-Leu-Leu-Val-Tyr-AMC in dimethyl sulfoxide were added to a 3 mL fluorescent cuvette, and the cuvette was placed in the jacketed cell holder of a Hitachi F-2000 fluorescence spectrophotometer. The temperature was maintained at 37° C. by a circulating water bath. 0.34 mg of PA28 were added and the reaction progress was monitored by the increase in fluorescence at 440 nm (λex=380 nm) that accompanies production of free AMC. […] After reaching a steady state of substrate hydrolysis, lactacystin was added to a final concentration of […], and the reaction was monitored for 1 h. The fluorescence (F) versus time (t) data were collected on a microcomputer using LAB CALC (Galactic) software. kinact values were estimated by a nonlinear least-squares fit of the data to the first order equation:
where C=Ft=0 and A=Ft=∞−Ft=0.

Series [3] deals with C2C12 cells. Description: Inhibition of intracellular protein degradation in C2C12 cells. Format: cell-based, mouse. As to conditions: for IC50: Mus musculus, C2C12 cells, 35S-methionine labelled, TCA soluble radioactivity. As to the method:
C2C12 cells (a mouse myoblast line) were labeled for 48 hrs with ^35S-methionine. The cells were then washed and preincubated for 2 hrs in the same media supplemented with 2 mM unlabelled methionine. The media was removed and replaced with a fresh aliquot of the preincubation media containing 50% serum, and a concentration of the compound to be tested. The media was then removed and made up to 10% TCA and centrifuged. The TCA soluble radioactivity was counted. Inhibition of proteolysis was calculated as the percent decrease in TCA soluble radioactivity.

The test system of series [4] is Male Sprague Dawley rats. As to the kind of experiment: Middle cerebral artery (MCA) occlusion/reperfusion: infarct size and neurological score. Format: in vivo, rat. Conditions: for infarct volume: rat MCA occlusion. How it is done:
Male Sprague Dawley rats (250-400 g) were anesthetized with haloethane and subjected to middle cerebral artery (MCA) occlusion using a nylon filament for 2 h. Subsequently, the filament was removed and reperfusion of the infarcted tissue occurred for 24 hours before the rat was sacrificed.
Immediately after the filament was withdrawn, the animals were evaluated using a neurological scoring system. Neurological scores were expressed on a scale from 0 to 10, with 0 representing no neurological deficit and 10 representing severe neurological deficit. After 24 hours and before sacrifice, animals were evaluated a second time using the same neurological scoring system.
Staining of coronal sections (2.0 mm×7-8) with triphenyltetrazolium chloride (TTC) taken throughout the brain were evaluated under blinded conditions using image analysis to determine infarct size.
Rats were given i.v. bolus injections (1.0 mL/kg) of either vehicle (50% propylene glycol/saline; n=8) or 7-n-propyl-clasto-lactacystin β-lactone (3b) (0.3 mg/kg; n=7) at 2 hours after the start of the occlusion. Two additional groups of rats were given i.v. bolus injections (1.0 mL/kg) of 3b at 0 minutes, 2 hours, and 6 hours after the start of the occlusion. One group (0.1 mg/kg×3; n=6) received 0.1 mg/kg at each of these times, while another group (0.3 mg/kg×3; n=7) received 0.3 mg/kg at each of the three timepoints.

Series [5] in a line: physchem. As to conditions: buffer, pH 7.8.
Procedure: as §1

“Also recorded” adds a separate entry of the source.

In series [1], `CC(C)C[C@H]1C(=O)N[C@@]2([C@@H](O)C(C)C)C(=O)O[C@@H]12` [Compound 3d] registered a half-life at 200 mM of 16.8 min. In series [2], the kinact/KI is 17000 M⁻¹ s⁻¹. Also, the IC50 in series [3] amounted to 510 nM.
In turn, `CCC[C@H]1C(=O)N[C@@]2([C@@H](O)C(C)C)C(=O)O[C@@H]12` [Compound 3b, 7-n-propyl-clasto-lactacystin β-lactone] registered a half-life at 200 mM in series [1] of 15.3 min. The neurological score entry in series [4] (i.v. 0.1 mg/kg×3 dosage group) and in series [4] (i.v. 0.3 mg/kg×3 dosage group) was “No significant improvement” each time. The “infarct volume decreased by” value in series [4] (rat MCA occlusion 2 h, reperfusion 24 h, single i.v. dose 0.3 mg/kg at 2 hours after start of occlusion) is given as 50%. In addition, the infarct volume result was “not significantly decreased” in series [4] (i.v. 0.1 mg/kg×3 (0 minutes, 2 hours, 6 hours)) and “not significantly decreased” in series [4] (i.v. 0.3 mg/kg×3 (0 minutes, 2 hours, 6 hours)). Moreover, the “mean neurological score at 24 hours” value in series [4] (scale 0 to 10 (10 = severe deficit), single i.v. 0.3 mg/kg dose, vehicle 8.7±0.6) worked out at 4±1. In series [4] (single i.v. 0.3 mg/kg dose, versus vehicle at 24 hours), the neurological improvement is given as 60%. The kinact/KI in series [2] is 46500 M⁻¹ s⁻¹. Moreover, in series [3], the IC50 was determined as 290 nM.
Take `CC[C@H]1C(=O)N[C@@]2([C@@H](O)C(C)C)C(=O)O[C@@H]12` [Compound 3a]: the half-life at 200 mM in series [1] turned out to be 15.3 min. In addition, in series [2], the kinact/KI came to 39000 M⁻¹ s⁻¹. In addition, in series [3], the IC50 was 320 nM.
The corresponding values for `CCCC[C@H]1C(=O)N[C@@]2([C@@H](O)C(C)C)C(=O)O[C@@H]12` [Compound 3c] are 17 min, 38000 M⁻¹ s⁻¹ and 330 nM.
For the compound `CC(C)[C@H](O)[C@@]12NC(=O)[C@H](C)[C@@H]1OC2=O` [Compound 2, clasto-lactacystin β-lactone], the half-life at 200 mM in series [5] turned out to be 13 min. Moreover, in series [2], the kinact/KI is 20000 M⁻¹ s⁻¹. Further, in series [3], the half-inhibitory concentration (IC50) lay within 700 to 1100 nM.
In the case of `CO[C@H]1C(=O)N[C@@]2([C@@H](O)C(C)C)C(=O)O[C@@H]12` [Compound 3f], the half-life at 200 mM in series [1] was 3.7 min. Moreover, the “relative hydrolysis rate” value in series [1] (compared to 2) is “more rapidly hydrolyzed”. Besides, in series [2] (compared to the other compounds of Table 1 / to 2), the “relative potency in the enzyme assay” value is recorded as “most potent”. In series [2], the kinact/KI was 82200 M⁻¹ s⁻¹. Besides, the IC50 in series [3] came to 86000 nM. Besides, the “relative potency in cell culture” value in series [3] (compared to 2) was “less potent than 2; also recorded: much weaker activity”.

(Values after patent publication US6794516B2, “Synthesis of clasto-lactacystin β-lactone and analogs thereof” (Millennium Pharmaceuticals, Inc., priority 1997, dated 2004).)
